# Source: paper PMC10460844, “Real‐Time Monitoring of Multitarget Antimicrobial Mechanisms of Peptoids Using Label‐Free Imaging with Optical Diffraction Tomography” (Advanced Science, 2023)
# Read-outs that look alike come from different tables or passages of the source. Square brackets hold non-standard residues; d marks the D form. Peptide text beside a SMILES is read from it. Gly(N(CH2)2(3-indolyl)) = O=C(O)CNCCc1c[nH]c2ccccc12; Nspe = C[C@H](NCC(=O)O)c1ccccc1; Nlys = NCCCCNCC(=O)O
# Key:
# [1] = Analytical reversed-phase HPLC elution (hydrophobicity); format: physicochemical; conditions: Table 1; analytical RP-HPLC, SunFire C18 […] 250 mm, water/ACN + 0.1% TFA, 5% B 2 min then linear to 100% B over 30 min, 1 mL/min, UV 220 nm; used as measure of hydrophobicity
# Procedure, shortened: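 Analytical reversed-phase HPLC on a C18 column (4.6 × 250 mm, 5 μm) at 1 mL/min, water/acetonitrile each with 0.1% TFA. Held at 5% B for 2 min, then linear to 100% B over 30 min and held 5 min, with UV detection at 220 nm; retention time (tR) serves as hydrophobicity measure.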
# E. coli ATCC 25922 [2] = format: cell-based, Escherichia coli
# Procedure, shortened: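 Broth microdilution in cation-adjusted MHB2 containing 0.001% acetic acid and 0.02% BSA, inoculum ≈2–5 × 10^5 CFU mL^−1 from a 3–4 h secondary culture. Peptoids tested at six two-fold dilutions from 25 µM, in triplicate. MIC taken as the lowest concentration preventing visible turbidity.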
# P. aeruginosa MDR-198 = format: cell-based
# E. coli ESBL 63103 = format: cell-based
# K. pneumonia ESBL 61962 = format: cell-based
# [3] = SAXS of peptoid self-assembly in aqueous environment; format: physicochemical; conditions: for self-assembly state in aqueous solution: aqueous environment
# Experimental: Prior to the experiment, peptoids were dissolved in Tris buffer (50 mM, pH 7.4). This peptoid stock solution (5 mg mL^−1) was diluted as needed. Unilamellar lipid vesicles were prepared using synthetic DMPC, DMPG, and DMPE‐PEG at a 75:22.5:2.5 molar ratio. The lipids were first dissolved in a 1:3 (v/v) methanol:chloroform solution. To make a lipid film, the organic solvents were removed completely under vacuum using a rotary evaporator with a Vacuubrand vacuum pump. The resulting lipid film was hydrated at 35 °C using Tris buffer (50 mM, pH 7.4). After hydration, the dispersion was sonicated for 15 min to promote the formation of smaller unilamellar vesicles. This was followed by the extrusion of lipid vesicles through a 100 nm pore diameter polycarbonate filter (>21 times) using an Avanti mini‐extruder fitted with two 1 mL airtight syringes. Immediately before the SAXS data collection, a peptoid solution with the adequate concentration for the target lipid:peptoid ratio was mixed 1:1 with the lipid solution (5 mg mL^−1) using a micropipette. SAXS experiments were performed at the automated BM29 bioSAXS beamline at the European Synchrotron Radiation Facility (ESRF) in Grenoble, France.^[ [47] ^] […] All experiments were conducted at 37 °C. The data set was calibrated to an absolute intensity scale using water as a primary standard. Samples (45 µL) were run through a capillary using the flow mode of the automated sample changer.^[ [48] ^] SAXS data was collected in ten successive frames of 0.5 s each to monitor radiation damage, and the data reduction was carried out using BioXTAS RAW program.^[ [49] ^]
# All scattering models were implemented and fitted to the experimental SAXS data using the QtiSAS software.^[ [50] ^]
# E. coli ATCC 25922 [4] = experiment: Thioflavin S fluorescence imaging of intracellular aggregation; format: cell-based; conditions: 29 and peptoid 1 at 4 × MIC, control peptides 2 × MIC
# [5] = Table S2, broth dilution, MHB2, 37 °C 24 h, max 25 µM, mean of triplicate
# [6] = SAXS, cylindrical α-helical bundle model, 5 mg mL^−1
# [7] = Table S3, counter-ion exchange series (TFA, HCl, AcOH salts), mean of triplicate
Compound,HPLC elution (%ACN) [1],MIC E. coli ATCC25922 (E. coli ATCC 25922 [2]; ATCC 25922),MIC E. coli ATCC25922 (E. coli ATCC 25922 [2]; [5]),MIC P. aeruginosa MDR-198 (P. aeruginosa MDR-198),MIC E. coli ESBL 63103 (E. coli ESBL 63103),MIC K. pneumonia ESBL 61962 (K. pneumonia ESBL 61962),"self-assembly state in aqueous solution ([3]; SAXS, 5 mg mL^−1)","fraction of dimers [3, 6]","fraction of monomers [3, 6]","fraction of trimers [3, 6]",MIC E. coli ATCC25922 (E. coli ATCC 25922 [2]; [7]),Th S fluorescence (intracellular biomass aggregation) (E. coli ATCC 25922 [4]),"MIC E. coli ATCC25922 (E. coli ATCC 25922 [2]; broth dilution, MHB2 with 0.001% acetic acid and 0.02% BSA, 2–5 × 10^5 CFU/mL, 37 °C 24 h, max 25 µM, mean of triplicates)","fraction of big clusters ([3]; SAXS fit, depending on concentration)","radius of gyration ([3]; SAXS, Tris buffer 50 mM pH 7.4, 37 °C, random Gaussian chain model)"
C[C@@H](c1ccccc1)N(CC(=O)N(CCCCN)CC(=O)N(CC(=O)N(CC(=O)N(CCCCN)CC(=O)N(CC(=O)N(CC(=O)N(CCCCN)CC(=O)N(CCc1c[nH]c2ccccc12)CC(=O)N(CCc1c[nH]c2ccccc12)CC(N)=O)[C@@H](C)c1ccccc1)[C@@H](C)c1ccccc1)[C@@H](C)c1ccccc1)[C@@H](C)c1ccccc1)C(=O)CN(C(=O)CNCCCCN)[C@@H](C)c1ccccc1 [peptoid 11] (H-[Nlys][Nspe][Nspe][Nlys][Nspe][Nspe][Nlys][Nspe][Nspe][Nlys][Gly(N(CH2)2(3-indolyl))][Gly(N(CH2)2(3-indolyl))]-NH2),54.0 %ACN,3.1 µM,6.3 µM,6.3 to 12.5 µM,3.1 to 6.3 µM,6.3 to 12.5 µM,larger defined nanostructures,10%,30%,60%,–,–,–,–,–
"C[C@@H](c1ccccc1)N(CC(N)=O)C(=O)CN(C(=O)CN(CCCCN)C(=O)CN(C(=O)CN(C(=O)CN(CCCCN)C(=O)CN(C(=O)CN(C(=O)CN(CCCCN)C(=O)CN(C(=O)CN(C(=O)CNCCCCN)[C@@H](C)c1ccccc1)[C@@H](C)c1ccccc1)[C@@H](C)c1ccccc1)[C@@H](C)c1ccccc1)[C@@H](C)c1ccccc1)[C@@H](C)c1ccccc1)[C@@H](C)c1ccccc1 [peptoid 1, reference compound] (H-[Nlys][Nspe][Nspe][Nlys][Nspe][Nspe][Nlys][Nspe][Nspe][Nlys][Nspe][Nspe]-NH2)",54.5 %ACN,–,6.3 µM,–,–,–,–,–,–,–,6.3 µM,enhanced Th S fluorescence,–,–,–
C[C@@H](c1ccccc1)N(CC(=O)N(CCCCN)CC(=O)N(CCc1c[nH]c2ccccc12)CC(=O)N(CCc1c[nH]c2ccccc12)CC(N)=O)C(=O)CN(CCCCN)C(=O)CN(CCCCN)C(=O)CN(C(=O)CN(C(=O)CN(CCCCN)C(=O)CN(C(=O)CN(C(=O)CNCCCCN)[C@@H](C)c1ccccc1)[C@@H](C)c1ccccc1)[C@@H](C)c1ccccc1)[C@@H](C)c1ccccc1 [peptoid 29] (H-[Nlys][Nspe][Nspe][Nlys][Nspe][Nspe][Nlys][Nlys][Nspe][Nlys][Gly(N(CH2)2(3-indolyl))][Gly(N(CH2)2(3-indolyl))]-NH2),48.6 %ACN,–,6.3 µM,6.3 to 12.5 µM,≥25 µM,>25 µM,remained monomeric and unstructured,–,–,–,6.3 µM,significantly increased emission,6.3 µM,0.003–0.008,10 Å
